The values that follow come from US11774396B2, “Systems and methods for patterning and spatial electrochemical mapping of cells” (President and Fellows of Harvard College, priority 2020, dated 2023).

Assay [1] has as its system MDCK cells. The text has this:
This example describes a method using cross-electrode impedance mapping to quantify cell adhesion.
Ethylenediaminetetraacetic acid (EDTA) is applied to the cells. EDTA is a calcium chelator that removes Ca^2+ needed for integrin proteins to maintain cell adhesion.
FIG. 6b is a data plot showing mean normalized impedances for different regions of the cell culture over time as specified in the map 601. FIG. 6cc are histograms of the normalized impedance values before, during, and after a washout of EDTA across the array.

Assay [2] relates to MDCK cells. The experiment in a line: Wound healing assay: electrochemical patterning and impedance mapping of regrowth. It counts as cell-based, Canine. The conditions noted are these: 1 μM, over the course of 72 hours; control culture took ~3 days to fill in the wound. The text has this: This example describes a combined application of both the cross-electrode impedance mapping and cell patterning is a wound healing assay.
These assays gauge cell growth rate and metabolism and can be useful for screening drugs affecting these parameters. Compared to the electrochemical patterning described herein, other tools mechanically generate a wound in a cell culture via a mechanical scratch which is both difficult to control and limiting in terms of wound pattern.
In this example, a wound is made in MDCK cells and then the growth is mapped in real-time. […] These patterns were defined by applying electrode currents of −10 nA for 40 s versus a Ag/AgCl pseudo reference electrode. The regrowth of the culture was then measured using the impedance mapping method.

As to `O=C(O)CN(CCN(CC(=O)O)CC(=O)O)CC(=O)O` [EDTA, Ethylenediaminetetraacetic acid], the “time course over which the cells detach with EDTA applied” value in the assay on MDCK cells [1] (5 mM EDTA application at t=~5 min) was approximately 50 min. For the same compound, the “time course over which the cells re-attach after EDTA washout” value in the assay on MDCK cells [1] (EDTA washed out by adding normal culture media) is approximately 200 min.

Regarding `C=C1[C@@H](C)[C@H]2[C@H](Cc3ccccc3)NC(=O)[C@]23OC(=O)/C=C/[C@H](O)CCC[C@@H](C)C/C=C/[C@H]3[C@@H]1O` [cytochalasin B], in the assay with MDCK cells [2], the “regrowth of the wound in the cell culture (normalized cross-electrode impedance maps)” value is reported as “very little growth”.
